Common to all, as to settings: n = 3
Assay [1] has as its target T1, WT-CfAvr4 (Fulvia fulva, UniProt Q00363).
T1 construct: gene AVR4; true mature form Lys30-Gln115, N-terminal two 6x His tags and rhinovirus 3C site (tag retained, by contrast with the w/o tag row), E. coli Rosetta-gami B
Nature of the assay: Isothermal titration calorimetry, reverse titration with concentrated CfAvr4 titrated into dilute (GlcNAc)6, 10 mM Bis-Tris, pH 6.5, 100 mM NaCl; temperature not given. It counts as binding. An excerpt:
(§1) The parameters remained similar irrespectively of whether or not the purification tag was removed from the protein or whether a reverse titration was run, in which concentrated CfAvr4 was titrated into a dilute solution of (GlcNAc)6, with no evidence of allosteric or dimer dissociation (S2 Table and S6 Fig). The values are also in good agreement with previously reported data except for the stoichiometric ratio [9]. […] Due to this discrepancy, we took great care to verify the concentration of CfAvr4 using a Bradford assay, and quantitated the carbohydrate concentration.
All ITC experiments were performed on a TA Instruments low volume NanoITC with a 186uL reaction cell and a reference cell filled with degassed Milli-Q grade water. Reactions were run in a buffer containing 10mM Bis-Tris, pH 6.5, 100 mM NaCl. The reservoir solution was filled with protein solution and continuously stirred while Chitin hexasaccharide solutions titrated in 2.5μL aliquots for 19 injections, with an initial 1μL injection, for a total injection volume of 48.5μL. […] The integrated heats, after correction for the heat of dilution were analyzed using the NanoAnalyze software from ITC Technologies. […]

In a further assay the target is T2, M51A (Fulvia fulva, UniProt Q00363, M51A).
T2 construct: gene AVR4; true mature form Lys30-Gln115, E. coli Rosetta-gami B
T2 sequence (Q00363 30-115 M51A): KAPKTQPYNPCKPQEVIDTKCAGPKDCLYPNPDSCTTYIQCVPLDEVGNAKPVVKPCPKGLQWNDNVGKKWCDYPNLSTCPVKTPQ
Nature of the assay: Isothermal titration calorimetry, (GlcNAc)6 titrated into protein in 10 mM Bis-Tris, pH 6.5, 100 mM NaCl, individual binding site model; temperature not given. The method, then:
(§2) All ITC experiments were performed on a TA Instruments low volume NanoITC with a 186uL reaction cell and a reference cell filled with degassed Milli-Q grade water. Reactions were run in a buffer containing 10mM Bis-Tris, pH 6.5, 100 mM NaCl. The reservoir solution was filled with protein solution and continuously stirred while Chitin hexasaccharide solutions titrated in 2.5μL aliquots for 19 injections, with an initial 1μL injection, for a total injection volume of 48.5μL. The carbohydrate solutions were made by dissolving the dry powder in buffer to a concentration of 20mM (confirmed using methods described above) and then diluted to the working concentration using the final buffer exchange flow through to match the buffers as closely as possible. The integrated heats, after correction for the heat of dilution were analyzed using the NanoAnalyze software from […]. An individual binding site model was used to fit the binding isotherm. All experiments were replicated a minimum of three times.
as §1
(§3) A stock solution of the monomer of N-acetylglucosamine was prepared by dissolving the dry powder in a buffer containing 10 mM Bis-Tris, pH 6.5, 100 mM NaCl to a concentration of 0.100 g/L using analytic techniques. Standard solution of 0, 0.010, 0.025, 0.050, 0.075 g/L were prepared by serial dilutions. Using glass test tubes and pipets, 100 μL of each standard was mixed with 300μL of concentrated sulfuric acid and vortexed for 10 sec to mix. Solutions were incubated at RT for 10 min and then placed on ice to stop the reaction. […] Analytically prepared solution of the di- and tri-saccharide scaled linearly to the calibration curve. To determine the concentration of the chitin hexasaccharide solutions used in ITC, the solutions were diluted into the dynamic range of the calibration curve (S12 Fig) and subjected to the above procedure.

A further assay has as its target T3, Y103F (Fulvia fulva, UniProt Q00363, Y103F).
T3 construct: gene AVR4; true mature form Lys30-Gln115, E. coli Rosetta-gami B
T3 sequence (Q00363 30-115 Y103F): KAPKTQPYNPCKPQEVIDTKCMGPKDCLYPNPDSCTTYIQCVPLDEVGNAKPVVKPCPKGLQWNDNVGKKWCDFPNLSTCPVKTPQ
The assay is described as above. How it is done:
as §2, §1, §3

A further assay addresses T4, D94A (Fulvia fulva, UniProt Q00363, D94A).
T4 construct: gene AVR4; true mature form Lys30-Gln115, E. coli Rosetta-gami B
T4 sequence (Q00363 30-115 D94A): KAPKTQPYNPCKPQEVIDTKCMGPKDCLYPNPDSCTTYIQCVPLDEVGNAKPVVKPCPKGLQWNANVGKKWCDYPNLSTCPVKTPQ
The description is as above. The method, then:
as §2, §1, §3

The target in another assay is T5, P87A (Fulvia fulva, UniProt Q00363, P87A).
T5 construct: gene AVR4; true mature form Lys30-Gln115, E. coli Rosetta-gami B
T5 sequence (Q00363 30-115 P87A): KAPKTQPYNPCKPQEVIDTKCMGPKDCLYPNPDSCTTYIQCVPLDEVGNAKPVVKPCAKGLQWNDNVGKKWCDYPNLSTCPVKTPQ
The assay is described as above. How it is done:
as §2, §1, §3

The target of assay [2] is T1, WT-CfAvr4. The description is as above. How it is done:
as §2, §1, §3

The target of the next assay is T6, Q69N (Fulvia fulva, UniProt Q00363, Q69N).
T6 construct: gene AVR4; true mature form Lys30-Gln115, E. coli Rosetta-gami B
T6 sequence (Q00363 30-115 Q69N): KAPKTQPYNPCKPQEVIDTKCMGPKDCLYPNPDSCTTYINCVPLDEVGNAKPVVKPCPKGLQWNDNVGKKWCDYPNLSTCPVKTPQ
The description is as above. How it is done: as §2, §1, §3

Another assay has as its target T7, K84A (Fulvia fulva, UniProt Q00363, K84A).
T7 construct: gene AVR4; true mature form Lys30-Gln115, E. coli Rosetta-gami B
T7 sequence (Q00363 30-115 K84A): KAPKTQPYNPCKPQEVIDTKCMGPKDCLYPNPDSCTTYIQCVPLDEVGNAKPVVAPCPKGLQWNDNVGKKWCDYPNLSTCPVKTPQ
The description is as above. How it is done:
as §2, §1, §3

The target in a further assay is T8, WT-CfAvr4 w/o tag (Fulvia fulva, UniProt Q00363).
T8 construct: gene AVR4; true mature form Lys30-Gln115, purification tag removed with rhinovirus 3C protease, E. coli Rosetta-gami B
The assay is described as above. The method, then:
as §2, §1, §3

The next assay deals with T9, N93A (Fulvia fulva, UniProt Q00363, N93A).
T9 construct: gene AVR4; true mature form Lys30-Gln115, E. coli Rosetta-gami B
T9 sequence (Q00363 30-115 N93A): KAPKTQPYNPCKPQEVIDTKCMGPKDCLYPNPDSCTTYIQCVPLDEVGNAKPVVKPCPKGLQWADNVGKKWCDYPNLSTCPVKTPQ
The description is as above. How it is done:
as §2, §1, §3

The target in the next assay is T10, Y67F (Fulvia fulva, UniProt Q00363, Y67F).
T10 construct: gene AVR4; true mature form Lys30-Gln115, E. coli Rosetta-gami B
T10 sequence (Q00363 30-115 Y67F): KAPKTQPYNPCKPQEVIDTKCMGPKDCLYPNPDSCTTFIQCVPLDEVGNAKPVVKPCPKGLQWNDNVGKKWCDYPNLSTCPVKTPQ
Described as above. The method, then:
as §2, §1, §3

The target in another assay is T11, N95A (Fulvia fulva, UniProt Q00363, N95A).
T11 construct: gene AVR4; true mature form Lys30-Gln115, E. coli Rosetta-gami B
T11 sequence (Q00363 30-115 N95A): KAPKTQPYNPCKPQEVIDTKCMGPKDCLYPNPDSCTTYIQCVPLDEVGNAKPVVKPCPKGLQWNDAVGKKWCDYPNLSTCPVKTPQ
The description is as above. How it is done: as §2, §1, §3

In the next assay the target is T12, P53A (Fulvia fulva, UniProt Q00363, P53A).
T12 construct: gene AVR4; true mature form Lys30-Gln115, E. coli Rosetta-gami B
T12 sequence (Q00363 30-115 P53A): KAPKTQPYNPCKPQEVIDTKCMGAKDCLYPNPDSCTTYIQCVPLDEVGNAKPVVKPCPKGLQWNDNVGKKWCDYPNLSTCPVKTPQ
The description is as above. The method, then: as §2, §1, §3

T1 sequence (Q00363 30-115): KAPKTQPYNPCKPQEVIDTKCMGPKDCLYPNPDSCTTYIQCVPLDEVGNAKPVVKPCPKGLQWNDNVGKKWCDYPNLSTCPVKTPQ
T8 sequence (Q00363 30-115): as above

As a reminder, the Kd is the concentration at which binding is half-saturated. For the compound `CC(=O)N[C@H]1[C@H](O[C@H]2[C@H](O)[C@@H](NC(C)=O)[C@H](O[C@H]3[C@H](O)[C@@H](NC(C)=O)C(O)O[C@@H]3CO)O[C@@H]2CO)O[C@H](CO)[C@@H](O[C@@H]2O[C@H](CO)[C@@H](O[C@@H]3O[C@H](CO)[C@@H](O[C@@H]4O[C@H](CO)[C@@H](O)[C@H](O)[C@H]4NC(C)=O)[C@H](O)[C@H]3NC(C)=O)[C@H](O)[C@H]2NC(C)=O)[C@@H]1O` (stereo partly drawn) [(GlcNAc)6, chitohexaose (chitin hexasaccharide, beta-1,4-linked N-acetylglucosamine hexamer)], the Kd at WT-CfAvr4 [1] was 7.16 µM; on M51A it was 9.2 µM; at Y103F, 12.2 µM; on D94A, 37.6 µM; on P87A, 17.9 µM; on WT-CfAvr4 [2], 7.63 µM. The Kd stood at 131 µM at Q69N; 121 µM at K84A; 6.73 µM at WT-CfAvr4 w/o tag; 44.7 µM at N93A; 6.86 µM at Y67F; 18.8 µM at N95A. This compound gave a Kd on P53A of 11.3 µM.

For the origin of these results see paper PMC6128652, “Structure of the Cladosporium fulvum Avr4 effector in complex with (GlcNAc)6 reveals the ligand-binding mechanism and uncouples its intrinsic function from recognition by the Cf-4 resistance protein” (PLoS Pathogens, 2018).
